Assay: Solid state stability of the drug substance (HPLC assay for final content and degradation products)
Assay type: physicochemical
Settings: 1 month, product of Example 1
Description: The solid state stability of the drug substance was determined by storing approximately 1.0 g of the material in a glass bottle at i) 40° C./75% Relative Humidity (RH), open exposure, for 1 month and b) at 50° C., closed, for 1 month. The material was assayed by HPLC for final content and degradation products in both cases.

[1] = 40° C./75% Relative Humidity (RH), open exposure

Solid state stability: HPLC assay [1]: 97 % initial
Solid state stability: degradation observed [1]: No significant degradation observed
Solid state stability: HPLC assay (50° C., closed): 99 % initial
Solid state stability: degradation observed (50° C., closed): No significant degradation observed
SMILES: CN(CCOc1ccc(CC2SC(=O)NC2=O)cc1)c1ccccn1.O=C(O)C(O)C(O)C(=O)O (racemic) [DL-Tartrate, 5-[4-[2-(N-methyl-N-(2-pyridyl)amino)ethoxy]benzyl]thiazolidine-2,4-dione DL tartrate]

— patent US20040014790A1, “Tartrate salt of thiazolidinedione derivative” (priority 2000, published 2004)
